Assay results published in patent US20090018106A1, “INTRAVENOUS FORMULATIONS OF PYRIDOXAL 5'- PHOSPHATE AND METHOD OF PREPARATION” (Medicure International Inc., priority 2005, published 2009).
Entries after “also recorded” stand apart in the source; their conditions may differ.

Key:
[1] = Safety and tolerability of single intravenous doses of P5P (Example Three); type: in vivo, human
Description: Methodology—This was a single-blind, single-dose escalation, non-randomized, 4-phase, non-crossover study designed to evaluate the safety and tolerability of P5P intravenous injectable solution at doses of 1, 5, 10, 20 mg/kg, administered to four groups of healthy male and female subjects under fasting conditions and to estimate pharmacokinetic parameters of P5P.
Safety data were collected for each subject throughout the study by recording vital signs, ECGs and reported adverse events.
Primary Endpoint—Safety Parameters—The safety parameters investigated in this study were vital signs measurements (blood pressure, pulse rate), ECG measurements (1, 2 and 12 hours post-dose), platelet function testing, and severity and causality of adverse events experienced by subjects during the study period and laboratory assessments (clinical chemistry, hematology, urinalysis).

[2] = clinical; design: species or system human; settings: in vivo; for AUC: AUC0-τ; for half-life: T1/2 el
Description: (§1) Data sets analyzed—Six (6) healthy, adult non-smokers were administered intravenously a single daily dose of 10 mg/kb of P5P for four consecutive days and completed the study. In accordance with the study protocol, data from all subjects who completed the study were used for pharmacokinetic and statistical analysis.
Analytical Methods—Plasma and urine samples were used for analysis. P5P, PAL, and PA levels were determined by HPLC/FLD. The quantitation level was 5 ng/mL for plasma and 100 ng/mL for urine. The sample analysis calibration curve range was 5 ng/mL to 5000 ng/mL for plasma and 100 ng/mL to 50,000 ng/mL for urine.
When the difference exceeded this time limit, the actual sampling times (rounded off to three decimal digits) were used to calculate pharmacokinetic parameters except for pre-dose samples, which were always reported as zero (0.000), regardless of time deviations. Scheduled sampling times are presented in concentration tables and graphs of the statistical section of the report.
Pharmacokinetic analyses (non-compartmental and compartmental) were performed at SFBC Anapharm. Pharmacokinetic parameters were calculated using either Bioequiv (release 3.40) or WinNonLin™ (release 4.0.1). Bioequiv is proprietary software developed and tested for bioequivalence studies at SFBC Anapharm. This software performs non-compartmental analyses of pharmacokinetic parameters and statistical analyses (via SAS release 6.12) according to FDA, HPFB and BMEA guidance.
The mean, standard deviation (SD), coefficient of variation (CV (%)) and range (min. and max.) were calculated for plasma concentrations of P5P (both baseline corrected and uncorrected), PAL and PA for each sampling time and treatment.
For the non-compartmental pharmacokinetic analyses the mean. SD, CV (%). range (min. and max.), median and interquartile range were calculated for the AUC0-t, (ng·h/mL), AUC0-t (ng·h/mL), AUC0-inf (ng·h/mL), Cmax (ng/mL), Cmin (ng/mL), Cavg (ng/mL), Fl(%), Ae0-t (ng), AUC^t/inf (%), Tmax (h), T1/2 el (h), Kel (h^−1), TLIN (h), LQCT (h). CLT (L/h), CLR (L/h). Vβ (L), MRT (h) and Accumulation ratio. The calculation of these pharmacokinetic parameters is explained below.
Cmax the maximum observed concentration, and Tmax, the time to reach that peak concentration, were determined for each subject and for each analyte. For Day 4 data, Cmin the minimum observed concentration was determined for each subject and for each analyte and Cavg was calculated as AUC0-τ/τ.
Percentage of Fluctuation—For Day 4 data, the peak-through percentage of fluctuation over one dosing interval (Fl(%)) was calculated as: 100*([Cmax−Cmin]/Cavg)
Half-Life and Elimination Rate Constant—To calculate the elimination rate constant (Kel), regression analyses were performed on the natural log(Ln) of plasma concentration values (y) versus time (x). Calculations were made between a time point where log-linear elimination phase begins (TLIN) and the time at which the last concentration above the limit of quantification (LQCT) occurred. The Kel was taken as the slope multiplied by (−1) and the apparent half-life (T1/2 el) as (In 2)/Kel.
TLIN and LQCT—TLIN, the time point where In-linear Kel calculation begins, and LQCT, the sampling time of the last quantifiable concentration used to estimate the Kel were determined by the scientist (according to SFBC Anapharm's standard operating procedures) for each subject and for each treatment. At least 4 non-zero observations during the terminal elimination phase were used to calculate the Kel. A minimum of 3 observations were used if less than 4 observations were available.
Areas Under the Concentration-Time Curves—AUC0-t was calculated using the linear trapezoidal rule from time 0.000 h until the last non-zero concentration.
AUC0-τ was calculated using the linear trapezoidal rule from time 0.000 h until 24.0 h.
The AUC0-inf was calculated as: […]

[3] = Safety evaluation of once daily intravenous 10 mg/kg P5P for four days (Example Four); type: in vivo, human
Description: as §1
Safety Methods—The safety parameters investigated in this study were: adverse events, vital sign measurements, ECGs, physical examination and standard laboratory evaluations.

Tmax ([2]; human, iv, 10 mg/kg) [h]	AUC(0-inf) ([2]; human, iv, 10 mg/kg, AUC0-inf) [ng·h/mL]	AUC(0-t) ([2]; human, iv, 10 mg/kg, AUC0-t) [ng·h/mL]	AUC ([2]; human, iv, 10 mg/kg) [ng·h/mL]	Cmax ([2]; human, iv, 10 mg/kg, Cmax) [ng/mL]	MRT ([2]; human, iv, 10 mg/kg) [h]	half-life ([2]; human, iv, 10 mg/kg) [h]	Tmax ([2]; human, iv, 10 mg/kg, Tmax) [h]	Ratio of LS Means, AUC0-inf ([2]; human) [%]	Ratio of LS Means, AUC0-t ([2]; human) [%]	Ratio of LS Means, Cmax ([2]; human) [%]	AUC(0-inf) ([2]; human, iv, 10 mg/kg) [ng·h/mL]	AUC(0-t) ([2]; human, iv, 10 mg/kg) [ng·h/mL]	Cmax ([2]; human, iv, 10 mg/kg) [ng/mL]	SMILES	ANOVA, difference between treatment days [2]	other results
0.081	283000	278000	303000	191000	3.4	5.14	0.089	–	–	–	–	–	–	Cc1ncc(COP(=O)(O)O)c(C=O)c1O [P5P, Pyridoxal 5′-phosphate, reference compound]	did not detect any statistically significant difference	safety and tolerability ([1]; single iv dose, doses up to 20 mg/kg): safe and well tolerated; common side effects observed ([1]; single iv doses 1-20 mg/kg): nausea, vomiting and stomach upset; Tmax ([2]; human, Tmax): 0.067 h; AUC0-τ ([2]; human, iv, 10 mg/kg): 303393.72 ng·h/mL; clearance ([2]; human, iv, 10 mg/kg, CLτ (text: CLT, total body clearance)): 42.5 mL/min; clinically significant elevated white blood cells (WBC) in urine (pyuria) ([3]; 10 mg/kg iv once daily, 4 days): observed for two subjects; diarrhea or vomiting ([3]; 10 mg/kg iv once daily, 4 days): No diarrhea or vomiting was reported; overall safety profile ([3]; 10 mg/kg iv once daily, 4 days): No serious, severe, or significant adverse events; also recorded: well tolerated with no serious or lasting treatment related effects; abnormal taste in the mouth ([3]; 1 subject, 10 mg/kg iv once daily, 4 days): 16.7%; dizziness (feels dizzy and dizziness) ([3]; 2 subjects, 10 mg/kg iv once daily, 4 days): 33.3 % of subjects; nausea ([3]; 3 subjects, 10 mg/kg iv once daily, 4 days): 50.0 % of subjects; inflammation at injection site ([3]; 3 subjects, judged unrelated to the study medication): 50.0 % of subjects; total adverse events ([3]; six subjects, 10 mg/kg iv once daily, 4 days): 40
0.528	21200	20700	21200	4360	3.85	2.3	0.611	99.47	99.75	97.17	21097.95	20704.80	4238	Cc1ncc(CO)c(C(=O)O)c1O [PA, 4-pyridoxic acid]	did not detect any statistically significant difference	–
0.691	22400	22300	29700	7630	4.06	3.4	0.525	133.70	132.83	101.45	30077.45	29682.94	6902	Cc1ncc(CO)c(C=O)c1O [PAL, pyridoxal]	–	ANOVA, difference between treatment days ([2]; human): statistically significant difference between treatment days was detected using ANOVA for In-transformed AUC0-t, and AUC0-inf but not for Cmax
